Literature values, collected in patent US20090198080A1, “METHOD FOR THE PREPARATION OF ARYL ETHERS” (Pfizer Inc, priority 2004, published 2009).

Columns and labels:
8-OH-DPAT hypothermia = settings: in vivo
[1] = different animal models

CCOc1ccccc1O[C@@H](c1ccccc1)[C@@H]1CNCCO1 (racemic) [reboxetine, 2-[α-(2-ethoxyphenoxy)benzyl]morpholine]
effect in the 8-OH-DPAT hypothermia test (8-OH-DPAT hypothermia): ineffective
norepinephrine reuptake inhibitory activity (norepinephrine reuptake): selective norepinephrine reuptake inhibitor
serotonin reuptake inhibitory activity (serotonin reuptake): only marginal
dopamine reuptake inhibitory activity (dopamine reuptake): no dopamine reuptake inhibitory activity
anticholinergic binding activity [1]: no anticholinergic binding activity
monoamine oxidase (MAO) inhibitory activity (monoamine oxidase (MAO)): substantially devoid
